{"source": "patent US10918633B2", "about": "“Method of treating coronavirus” (MyMD Pharmaceuticals, Inc., priority 2015, dated 2021)", "key": {"MAO-B": {"biological_target": "T1, MAO-B (Homo sapiens, UniProt P27338)", "T1 construct": "purchased", "T1 sequence (P27338 1-520)": "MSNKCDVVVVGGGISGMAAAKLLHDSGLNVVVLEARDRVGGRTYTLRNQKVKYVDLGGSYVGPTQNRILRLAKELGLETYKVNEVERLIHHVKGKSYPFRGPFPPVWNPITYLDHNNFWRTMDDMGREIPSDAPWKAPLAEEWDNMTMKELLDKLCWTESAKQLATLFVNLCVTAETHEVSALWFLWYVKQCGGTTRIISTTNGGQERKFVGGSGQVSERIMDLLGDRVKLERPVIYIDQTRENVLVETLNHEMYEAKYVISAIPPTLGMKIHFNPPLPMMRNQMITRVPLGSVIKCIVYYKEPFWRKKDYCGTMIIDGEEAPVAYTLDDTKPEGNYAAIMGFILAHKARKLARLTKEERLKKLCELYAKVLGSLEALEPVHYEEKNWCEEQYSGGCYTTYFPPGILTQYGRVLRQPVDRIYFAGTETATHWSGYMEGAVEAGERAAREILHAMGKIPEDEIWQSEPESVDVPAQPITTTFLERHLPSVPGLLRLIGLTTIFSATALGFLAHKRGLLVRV", "assay": "MAO-Glo luminescent assay, MAO-B inhibition", "type": "biochemical", "conditions": "compared with myosmine, anatabine, anabasine, nornicotine; FIG. 2", "description": "(§1) This example describes experiments for determining monoamine oxidase (MAO) inhibition for isomyosmine and other alkaloids. MAOs are enzymes located on the outer membrane of mitochondria and are involved in the catabolism of monoamine neurotransmitters. There are two well-characterized isoenzymes: MAO-A, which predominantly catabolizes serotonin and norepinephrine, and MAO-B, which preferentially catabolizes benzylamine and phenylethylamine. Dopamine and tyramine are metabolized by both isoforms.\n(§2) To detect the activity of MAO, a luminescent method (MAO-Glo Assay kit, from Promega, Cat #V1401) was used. In this method, a MAO substrate (a derivative of beetle luciferin provided in the kit) is mixed with the compound to be tested (in this case, myosmine and control compounds). Then, the MAO enzymes (either A or B, purchased separately) are added to the mixture and incubated with the reaction for 1 hour at room temperature. The MAO enzymes, if not inhibited by the test compound, will convert the substrate into methyl ester luciferin. Finally, a luciferin detection reagent (provided by the kit) is added (20 minutes at room temperature) to stop the MAO reaction and convert methyl ester luciferin into D-luciferin. […] The luminescent signal is measured and recorded using a luminometer. […]"}, "[1]": {"tested_on": "purified nitrate reductase", "assay": "Cell-free nitrate reductase inhibition, Griess reaction", "type": "biochemical", "method": "Standard concentrations of nitrate were incubated with purified nitrate reductase and vehicle or isomyosmine, and the Griess reaction was used to measure nitrite. Several concentrations of nitrate and two concentrations of isomyosmine were used."}, "hydrogen sulfide (H2S)": {"tested_on": "hydrogen sulfide (H2S)", "assay": "Serum hydrogen sulfide (H2S) by ELISA in mice with EAE", "type": "in vivo", "conditions": "5 mg/ml isomyosmine in water, FIG. 3A-3B", "method": "This example describes an experiment to determine whether treatments with isomyosmine have an effect on hydrogen sulfide (H2S) quantity in mice with experimental autoimmune encephalomyelitis (EAE). Mice were immunized for EAE on day 0 and treated with either vehicle control or 5 mg/ml isomyosmine in water, for the duration of the experiment. Blood was collected, serum was separated and assayed for H2S via Kamiya Biomedical ELISA kit per the manufacturer's instructions. Two different experiments were performed. In the first experiment, blood was collected at the end of disease course. In the second experiment, blood was collected at day 12 after immunization."}, "MAO-A": {"biological_target": "T2, MAO-A (Homo sapiens, UniProt P21397)", "T2 construct": "purchased", "T2 sequence (P21397 1-527)": "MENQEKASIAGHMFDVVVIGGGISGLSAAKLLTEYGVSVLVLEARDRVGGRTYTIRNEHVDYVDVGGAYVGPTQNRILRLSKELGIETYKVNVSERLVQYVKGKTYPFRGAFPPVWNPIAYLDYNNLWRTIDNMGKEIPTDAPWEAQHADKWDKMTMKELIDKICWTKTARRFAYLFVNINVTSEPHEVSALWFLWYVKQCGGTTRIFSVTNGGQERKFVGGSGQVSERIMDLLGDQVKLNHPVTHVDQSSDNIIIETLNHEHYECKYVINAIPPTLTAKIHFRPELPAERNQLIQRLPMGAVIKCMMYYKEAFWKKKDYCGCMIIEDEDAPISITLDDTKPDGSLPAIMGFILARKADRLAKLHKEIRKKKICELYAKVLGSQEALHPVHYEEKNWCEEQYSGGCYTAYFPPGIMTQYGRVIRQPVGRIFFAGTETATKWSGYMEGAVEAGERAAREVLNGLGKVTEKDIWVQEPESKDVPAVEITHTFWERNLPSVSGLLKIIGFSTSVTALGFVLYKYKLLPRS", "assay": "MAO-Glo luminescent assay, MAO-A inhibition", "type": "biochemical", "conditions": "FIG. 1", "description": "as §1, §2"}, "[2]": {"tested_on": "herpes labialis (cold sores), a type of herpes simplex", "assay": "Treatment of herpes labialis (cold sores) in an individual", "type": "in vivo, human", "conditions": "100 mg dose upon first feeling the onset of a cold sore", "method": "This example illustrates administering isomyosmine to treat herpes labialis (cold sores), a type of herpes simplex occurring on the lip. An individual who experiences periodic outbreaks of herpes labialis was administered a 100 mg dose of isomyosmine upon first feeling the onset of a cold sore."}}, "note": "Entries after “also recorded” stand apart in the source; their conditions may differ.", "data": [{"compound": "C1=NC(c2cccnc2)CC1", "note": "(centres unmarked) [isomyosmine, 3-(3,4-dihydro-2H-pyrrol-2-yl)-pyridine]", "values": [{"measurement": "inhibition of the activity of MAO-B (in words)", "setting": "MAO-B", "value": "most potent among the five alkaloids tested; also recorded: potent inhibitor"}, {"measurement": "inhibition of nitrate reductase", "setting": "[1]; high amount of substrate, system saturated (FIG. 4C)", "value": "inhibitory effect was reduced"}, {"measurement": "inhibition of nitrate reductase", "setting": "[1]; low amount of substrate (FIG. 4A)", "value": "most efficiently"}, {"measurement": "H2S in serum as measured by ELISA", "setting": "hydrogen sulfide (H2S); blood collected at day 12 after immunization", "value": "trend toward an increase in H2S"}, {"measurement": "H2S in serum as measured by ELISA", "setting": "hydrogen sulfide (H2S); blood collected at the end of disease course", "value": "trend toward an increase in H2S"}, {"measurement": "inhibition at 2000 µM", "setting": "MAO-A; 2 mM concentration (2,000 micromolar), read-out: inhibition of the enzymatic activity of MAO-A", "value": "~50", "unit": "%"}, {"measurement": "inhibition of the enzymatic activity of MAO-A (in words, curve position)", "setting": "MAO-A; compared with myosmine, anatabine, anabasine, nornicotine", "value": "most potent of the five; also recorded: potent inhibitor"}, {"measurement": "prevention of cold sore outbreak", "setting": "[2]", "value": "effective to prevent the outbreak of the cold sore"}]}]}
